Reference: US20260022143A1, “Cyclic Peptide Inhibitors of IL-23” (JANSSEN PHARMACEUTICA NV, priority 2022, published 2026)
Starred links: 1 amine or outer side, 2 acyl side, 3 side chain; linkers in the order of their positions; H or OH if unused. Positions of bridges follow the written chain, without caps; N, C: chain ends. Non-standard residues stand in square brackets, D forms with d. Residues, ends and D or L forms follow the SMILES beside them. *: point of attachment. Trp(7-(3-AcNH-Ph)) = CC(=O)Nc1cccc(-c2cccc3c(C[C@H](N)C(=O)O)c[nH]c23)c1; X27 = C[N+](C)(C)CCc1cn(-c2ccc(C[C@H](N[*:1])C(=O)[*:2])cc2)nn1; Me3N+(CH2)2O(CH2)2O(CH2)2CO = C[N+](C)(C)CCOCCOCCC(=O)*; Trp(7-Me) = Cc1cccc2c(C[C@H](N)C(=O)O)c[nH]c12; Abu(4-yl) = O=C([C@H](CC[*:3])N[*:1])[*:2]; Lys(Me3) = C[N+](C)(C)CCCC[C@H](N)C(=O)O; 2Nal = N[C@@H](Cc1ccc2ccccc2c1)C(=O)O; AEF = NCCOc1ccc(C[C@H](N)C(=O)O)cc1; 3Pal = N[C@@H](Cc1cccnc1)C(=O)O; Lys(Me) = CNCCCC[C@H](N)C(=O)O; X7 = COCCOCCOCCOCCOCCOCCC(=O)*; Pen = CC(C)(S)[C@H](N)C(=O)O; αMeC = C[C@](N)(CS)C(=O)O; Thp = NC1(C(=O)O)CCOCC1; X3 = C[N+](C)(C)CCCCC*; Sar = CNCC(=O)O

Columns and labels:
[1] = Exposed Polar Surface Area (EPSA); assay type: physicochemical; settings: SFC on Chirex 3014 column; sample 1 mM DMSO stock; read-out: EPSA
In short: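 Polarity descriptor in Å² derived from retention time using 8 calibration standards re-run every 20 compounds. Duplicate injections of 1 mM DMSO stock; linear 5–60% modifier gradient (20 mM ammonium formate in MeOH) with CO2 at 4 mL/min, 35 °C, on a Chirex 3014 column.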

IL-23R = biological target: T1, IL-23R (Homo sapiens, UniProt Q5VWK5); experiment: IL23R Reporter Assay; assay type: cell-based; settings: HEK293 cells containing IL-23R, IL-12RP1 and STAT-inducible firefly luciferase reporter; 10 ng/mL IL-23 (EC90); 5 h at 37° C.; read-out: IL23R Reporter Assay
T1 construct: host or cells: HEK293
T1 sequence (Q5VWK5 24-629): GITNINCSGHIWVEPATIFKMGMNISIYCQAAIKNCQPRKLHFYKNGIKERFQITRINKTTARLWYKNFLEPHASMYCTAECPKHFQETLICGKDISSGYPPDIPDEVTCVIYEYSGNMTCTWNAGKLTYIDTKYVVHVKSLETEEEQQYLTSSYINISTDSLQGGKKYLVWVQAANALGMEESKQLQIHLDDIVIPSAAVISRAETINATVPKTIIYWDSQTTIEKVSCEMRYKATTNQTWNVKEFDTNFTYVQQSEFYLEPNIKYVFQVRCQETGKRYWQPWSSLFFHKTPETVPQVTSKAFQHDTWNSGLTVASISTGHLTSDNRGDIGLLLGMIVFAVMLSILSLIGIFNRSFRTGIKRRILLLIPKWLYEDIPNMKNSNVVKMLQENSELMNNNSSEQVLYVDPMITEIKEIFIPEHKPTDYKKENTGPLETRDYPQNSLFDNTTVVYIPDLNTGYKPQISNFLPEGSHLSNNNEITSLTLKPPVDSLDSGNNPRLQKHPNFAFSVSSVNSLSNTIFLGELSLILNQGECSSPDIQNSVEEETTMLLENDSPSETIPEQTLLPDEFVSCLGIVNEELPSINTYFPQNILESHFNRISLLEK

Compound	EPSA [1] [A^2]	IC50 (IL-23R) [nM]
CC(=O)N(C)CCCC[C@@H]1NC(=O)[C@H](Cc2c[nH]c3c(C)cccc23)NC(=O)[C@H]([C@@H](C)O)NC(=O)[C@H](CC(=O)N(C)C)NC(=O)[C@@H](NC(=O)CCOCCOCC[N+](C)(C)C)CCSC[C@@H](C(=O)N[C@@H](Cc2ccc(OCCCCC[N+](C)(C)C)cc2)C(=O)N[C@@H](Cc2ccc3ccccc3c2)C(=O)NC2(C(=O)N[C@@H](CCCCN(C)C(C)=O)C(=O)N[C@@H](CC(N)=O)C(=O)N[C@@H](Cc3cccnc3)C(=O)N(C)CC(=O)N(C)C)CCOCC2)NC1=O [compound 523, cPEG3aCO-Abu(1)-N(N(Me)2)-T-7MeW-K(NMeAc)-C(1)-TMAPF-2Nal-THP-K(NMeAc)-N-3Pya-Sar-CON(Me)2] ({Me3N+(CH2)2O(CH2)2O(CH2)2CO}-[Abu(4-yl)]D(NMe2)T[Trp(7-Me)][Lys(Me)](Ac)CY(X3)[2Nal][Thp][Lys(Me)](Ac)N[3Pal][Sar]-NMe2; thioether 1-6)	154	5.2
COCCOCCOCCOCCOCCOCCC(=O)N[C@H](CCCNC(=N)N)C(=O)N[C@@H]1C(=O)N[C@@H](CC(N)=O)C(=O)N[C@@H]([C@@H](C)O)C(=O)N[C@@H](Cc2c[nH]c3c(-c4cccc(NC(C)=O)c4)cccc23)C(=O)N[C@@H](CCCCNC(C)=O)C(=O)N[C@H](C(=O)N[C@@H](Cc2ccc(OCCN)cc2)C(=O)N[C@@H](Cc2ccc3ccccc3c2)C(=O)NC2(C(=O)N[C@@H](CCC(=O)O)C(=O)N[C@@H](CC(N)=O)C(=O)N[C@@H](Cc3cccnc3)C(=O)N(C)CC(N)=O)CCOCC2)C(C)(C)SSC1(C)C [compound 422] (X7-[dR][Pen]NT[Trp(7-(3-AcNH-Ph))]K(Ac)[Pen][AEF][2Nal][Thp]EN[3Pal][Sar]-NH2; disulfide 2-7 (inferred))	192	1.8

Second part, the compound after the results:

EPSA [1] [A^2]	IC50 (IL-23R) [nM]	Compound
176	2.1	CC(=O)NCCCC[C@@H]1NC(=O)[C@H](Cc2c[nH]c3c(C)cccc23)NC(=O)[C@H]([C@@H](C)O)NC(=O)[C@H](CC(N)=O)NC(=O)[C@@H](NC(C)=O)C(C)(C)SSC(C)(C)[C@@H](C(=O)N[C@@H](Cc2ccc(-n3cc(CC[N+](C)(C)C)nn3)cc2)C(=O)N[C@@H](Cc2ccc3ccccc3c2)C(=O)NC2(C(=O)N[C@@H](CCC(=O)O)C(=O)N[C@@H](CC(N)=O)C(=O)N[C@@H](Cc3cccnc3)C(=O)N(C)CC(N)=O)CCOCC2)NC1=O [compound 454] (Ac-[Pen]NT[Trp(7-Me)]K(Ac)[Pen][X27][2Nal][Thp]EN[3Pal][Sar]-NH2; disulfide 1-6 (inferred))
241	51	CC(=O)NCCCC[C@@H]1NC(=O)[C@H](Cc2c[nH]c3ccccc23)NC(=O)[C@H]([C@@H](C)O)NC(=O)[C@H](CC(N)=O)NC(=O)[C@@H](NC(=O)[C@H](CCCC[N+](C)(C)C)NC(C)=O)CCSC[C@@](C)(C(=O)N[C@@H](Cc2ccc(OCCCCC[N+](C)(C)C)cc2)C(=O)N[C@@H](Cc2ccc3ccccc3c2)C(=O)NC2(C(=O)N[C@@H](CCCCNC(C)=O)C(=O)N[C@@H](CC(N)=O)C(=O)N[C@@H](Cc3cccnc3)C(=O)N(C)CC(N)=O)CCOCC2)NC1=O [compound 517, MeCO-k(Me)3-Abu(1)-N-T-W-K(Ac)-aMeC(1)-TMAPF-2Nal-THP-K(Ac)-N-3Pya-Sar-CONH2] (Ac-[Lys(Me3)][Abu(4-yl)]NTWK(Ac)[αMeC]Y(X3)[2Nal][Thp]K(Ac)N[3Pal][Sar]-NH2; thioether 2-7)
195	51	CC(=O)NCCCC[C@@H]1NC(=O)[C@H](Cc2c[nH]c3c(C)cccc23)NC(=O)[C@H]([C@@H](C)O)NC(=O)[C@H](CC(N)=O)NC(=O)[C@@H](NC(=O)CCCc2ccc(I)cc2)C(C)(C)SSC(C)(C)[C@@H](C(=O)N[C@@H](Cc2ccc(OCCCCC[N+](C)(C)C)cc2)C(=O)N[C@@H](Cc2ccc3ccccc3c2)C(=O)NC2(C(=O)N[C@@H](CCCCNC(=O)COc3ccc(-c4ccc(F)cc4F)cc3C(=O)O)C(=O)N[C@@H](CC(N)=O)C(=O)N[C@@H](Cc3cccnc3)C(=O)N(C)CC(N)=O)CCOCC2)NC1=O [compound 525, IPBCO-Pen(3)-N-T-7MeW-K(Ac)-Pen(3)-TMAPF-2Nal-THP-K(DFN)-N-3Pya-Sar-CONH2]
